Structures can show the parent of a compound that is named as a salt.
Assay: Water solubility of an additive
Format: physicochemical
Conditions: 25° C., demineralized water
Method: The water solubility of an additive was determined at ambient conditions (25° C.) in demineralized water. Measured quantities of additive and demineralized water were combined and shaken for up to two hours. The additive was deemed soluble if a clear solution resulted; the additive was otherwise deemed insoluble. The water solubility of an additive is the maximum concentration of additive producing a clear solution in water.

Solubility H2O [w %]	Molecule
<0.1	CCCCOC(=O)CC(CC(=O)OCCCC)(OC(C)=O)C(=O)OCCCC [ATBC, Acetyl tributyl citrate]
0.2	CCCCOC(=O)CC(O)C(=O)OCCCC (stereo not drawn) [DBM, Dibutyl malate]
0.8	CCCCOC(=O)C(O)C(O)C(=O)OCCCC (stereo not drawn) [DBT, Dibutyl tartarate]
>10	CCOC(=O)CC(O)C(=O)OCC (stereo not drawn) [DEM, Diethyl malate]
>10	CC(C)OC(=O)C(O)C(O)C(=O)OC(C)C (stereo not drawn) [DIPT, Diisopropyl tartarate]
0.4	C=C(C)C(=O)OCC(CO)OC(=O)C(=C)C (stereo not drawn) [GDM, Glycerol dimethacrylate]
<0.05	CCCCOC(=O)CC(O)(CC(=O)OCCCC)C(=O)OCCCC [TBC, Tributyl citrate]
6	COC(=O)CC(O)(CC(=O)OC)C(=O)OC [TMC, Trimethyl citrate]
3	C4H9(OC3H6)3—OH [DTPnB]
